Blank lines part the entries; values can stand above or below the molecule they belong to.
Legend:
Format in all cases: cell-based
[1] = test system: E. Coli K-12; experiment: Susceptibility test: individual MIC and check point FIC; set-up: MICCOE: unit not given beside the values; conditions: for MICantibiotic: antibiotic alone, unit assumed; for FIC: smallest FIC
Protocol: (§1) FIC was calculated based on the toxicity of each molecule on E. coli as well as their combined toxicity on E. coli. The equation for calculation is as follows:
(§2) FIC═[COE]/MICCOE+[Antibiotic]/MICantibiotic
(§3) An FIC less than ≤0.5 indicates synergy, FIC in the range of >0.5 and ≤1.0 indicates additive activity, FIC in the range of >1 and […] indicates indifference, and a FIC >4 indicates antagonism.
(§4) Minimal inhibition concentration (MIC) were used to determine the toxicity of individual molecules as well as them in combination on several bacterial strains. The individual MIC were determined by the minimal concentration of molecules required to inhibit the growth of the bacterial strain in culture medium (such as Lysogeny broth (LB) and Muller Hinton Broth (MHB)) at 37° C. overnight. The combined MICs were measured by using check point method, where the bacterial strain was cultured in a 96-well plate assay with a series concentrations of COE along the rows and a series concentrations of antibiotic molecules along the columns in culture medium at 37° C. overnight. The preparation of the bacterial strain for the assay was done as known in the art. […] Further information regarding the protocol can be found in Wiegand et al., Natl. Protoc., (2008) 3(2):163-75, Orhan et al., J. of Clin. Microbiol. (2005) 43(1):140-143 and Yan et al., Chem. Sci., (2016) 7(9):5714-5722.

[2] = test system: Colistin resistant Acinetobactor baumanni; experiment: as above
Protocol: as §1, §2, §3, §4

[3] = test system: Acinetobactor baumanni; experiment: as above
Protocol: as §1, §2, §3, §4

[4] = test system: HepG2 (ATCC HB-8065) cells; experiment: Cellular cytotoxicity, MTT viability assay; conditions: 24 h incubation, at 128 μg/mL
Protocol: Cellular cytotoxicity was assessed using an MTT viability assay. HepG2 (ATCC HB-8065) cells were seeded at 1×10^4 cells/well in 96 well plates over night at 37° C. in DMEM supplemented with 10% FBS before use. COEs were serially diluted with 2-fold dilution in culture media to afford a concentration ranging from 2 to 128 μg/mL. After 24 h incubation, 10 μL of a 5 mg/mL solution of MTT was added to each well. After incubation for 2-4 h, upon discard of previous media, 100 μL of DMSO as solubilizing solution was added to each well, and absorbance at 570 nm were measured on a plate reader. Percent viability was determined by dividing background-corrected absorbance measurements by background corrected measurements for untreated cells. Formula O, Formula TT and Formula PP were measured to be around 94%, 70% and 103% of cell viability at 128 μg/mL, respectively.

[5] = test system: Colistin resistant Pseudomonas aeruginosa; experiment: Susceptibility test: individual MIC and check point FIC; set-up: MICantibiotic / MICCOE: unit not given beside the values
Protocol: as §1, §2, §3, §4

[6] = test system: Pseudomonas aeruginosa 01 (PA01); experiment: as above; set-up: unit not given beside the values; conditions: antibiotic alone, 37° C. overnight
Protocol: as §1, §2, §3, §4

[7] = COE in combination with Colistin, smallest FIC

Molecule: CC1(C)S[C@@H]2[C@H](NC(=O)[C@H](N)c3ccccc3)C(=O)N2[C@H]1C(=O)O [Ampicilin, ampicillin]
MICantibiotic ([1]; E. Coli K-12): 4 µg/mL

Molecule: colistin [reference compound]
MICantibiotic [6]: 1
MICantibiotic ([2]; antibiotic alone): 512
MICantibiotic ([3]; antibiotic alone): 256
MICantibiotic ([1]; E. Coli K-12): 1 µg/mL
MICantibiotic ([5]; antibiotic alone): 16

Molecule: O=C(N[C@H](CO)[C@H](O)c1ccc([N+](=O)[O-])cc1)C(Cl)Cl [Chloramphenicol, chloramphenicol]
MICantibiotic ([1]; E. Coli K-12): 16 µg/mL

Molecule: penicillin
MICantibiotic ([1]; E. Coli K-12): 64 µg/mL

Molecule: Cc1cc(NS(=O)(=O)c2ccc(N)cc2)no1 [Sulfamethoxazole, sulfamethoxazole]
MICantibiotic ([1]; E. Coli K-12): 512 µg/mL

Further lines, with some results ahead:

MICantibiotic ([1]; E. Coli K-12): 0.125 µg/mL
Molecule: O=C(O)c1cn(C2CC2)c2cc(N3CCNCC3)c(F)cc2c1=O [Ciprofloxacin, ciprofloxacin]

MICCOE ([2]; COE alone): 256
MICCOE ([3]; COE alone): 256
MICCOE ([1]; COE alone, E. Coli K-12): 1024
MICCOE ([5]; COE alone): 256
Molecule: C[N+](C)(C)CCCCCCOc1cc(/C=C/c2ccc(/C=C/c3ccc(/C=C/c4cc(OCCCCCC[N+](C)(C)C)cc(OCCCCCC[N+](C)(C)C)c4)cc3)cc2)cc(OCCCCCC[N+](C)(C)C)c1 [Formula TT]
FIC [2, 7]: 0.25
antimicrobial effect of combination (in words) ([2]; with colistin): significant synergistic antimicrobial effect
FIC [3, 7]: 0.51
FIC ([1]; COE in combination with Chloramphenicol, E. Coli K-12): 1.0
FIC ([1]; COE in combination with Penicillin, E. Coli K-12): 0.53
FIC ([1]; COE in combination with Rifampin, E. Coli K-12): 0.28
antimicrobial effect of combination (in words) ([1]; with rifampin, E. coli K-12): significant synergistic antimicrobial effect
cell viability [4]: ~70%
FIC [5, 7]: 0.14
antimicrobial effect of combination (in words) ([5]; with colistin): significant synergistic antimicrobial effect

MICantibiotic ([1]; E. Coli K-12): 32 µg/mL
Molecule: CO[C@H]1/C=C/O[C@@]2(C)Oc3c(C)c(O)c4c(O)c(c(/C=N/N5CCN(C)CC5)c(O)c4c3C2=O)NC(=O)/C(C)=C\C=C\[C@H](C)[C@H](O)[C@@H](C)[C@@H](O)[C@@H](C)[C@H](OC(C)=O)[C@@H]1C [Rifampin, rifampin]

Source: patent publication US20230019027A1, “SHORT CONJUGATED OLIGOELECTROLYTESAND ANTIBIOTICS” (The Regents Of The University Of California, priority 2019, published 2023)
